Read-outs that look alike come from different tables or passages of the source. Marks after values point to notes of the source that are not given here.
Tests used:
db/db mice = experiment: Hepatic triglyceride, liver histology, serum ALT and ALP in high-fat diet fed db/db mice; format: in vivo, mouse; details: for Hepatic triglyceride (mM/g): vehicle 148 ± 14; for Serum ALP (U/L): vehicle 129 ± 15
Method in brief: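 High-fat diet fed db/db mice aged 8-10 weeks dosed 10 mg/kg compound once daily for 10 days. Liver sections stained with H&E and 0.3% oil red O; hepatic triglyceride measured by tissue assay kit; serum ALP and ALT activities measured by kit.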

[1] = tested on: human cervical carcinoma Hela cells; experiment: MTT cell viability assay, Hela; format: cell-based; details: 48 h, read-out: Cell viability as a percentage of the cells treated with DMSO, Hela
Method in brief: (§1)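 Percent viability versus DMSO-treated controls was determined colorimetrically with MTT. Treatment used 20 uM or 40 uM compound on cells grown in serum-supplemented (10% FBS) DMEM.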

[2] = tested on: human breast cancer MCF7 cells; experiment: MTT cell viability assay, MCF-7; format: cell-based; details: 48 h, read-out: Cell viability as a percentage of the cells treated with DMSO, MCF-7
Method in brief: as §1

[3] = tested on: human colorectal adenocarcinoma HCT15 cells; experiment: MTT cell viability assay, HCT15; format: cell-based; details: 48 h, read-out: Cell viability as a percentage of the cells treated with DMSO, HCT15; for viability at 20 µM: HCT-15, 20 uM; for viability at 40 µM: HCT-15, 40 uM
Method in brief: as §1

[4] = target: T1, FXR ligand binding domain (LBD) (Homo sapiens, UniProt Q96RI1); experiment: AlphaScreen assay: FXR LBD recruitment of coregulator peptide motifs (SRC2-3, SRC1-2); format: biochemical; details: Table 2
T1 construct: made in house
T1 sequence (Q96RI1 262-486 limits assumed): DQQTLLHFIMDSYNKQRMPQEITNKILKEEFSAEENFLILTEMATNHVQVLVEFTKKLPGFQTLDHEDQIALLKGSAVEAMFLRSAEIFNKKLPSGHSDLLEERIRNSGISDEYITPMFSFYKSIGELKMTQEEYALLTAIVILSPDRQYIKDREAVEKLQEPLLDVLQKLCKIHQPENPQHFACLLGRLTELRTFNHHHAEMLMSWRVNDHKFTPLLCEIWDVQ

[5] = tested on: human hepatoma HepG2 cells; experiment: MTT cell viability assay, HepG2; format: cell-based; details: 48 h, read-out: Cell viability as a percentage of the cells treated with DMSO, HepG2
Method in brief: as §1

full-length FXR = target: T2, full-length FXR (Homo sapiens, UniProt Q96RI1); experiment: Cell-based FXR transactivation, EcRE luciferase reporter in COS-7 cells; details: Table 2; for Cell-based FXR transactivation Fold changes by 5 μM compound: positive: induction, minus: repression; for EC50: EcRE luciferase reporter
T2 construct: The cells were co-transfected with plasmids encoding full-length FXR and the cognate luciferase reporter EcRE-Luc; expressed in transfected cells; host or cells: COS-7
T2 sequence (Q96RI1 1-486): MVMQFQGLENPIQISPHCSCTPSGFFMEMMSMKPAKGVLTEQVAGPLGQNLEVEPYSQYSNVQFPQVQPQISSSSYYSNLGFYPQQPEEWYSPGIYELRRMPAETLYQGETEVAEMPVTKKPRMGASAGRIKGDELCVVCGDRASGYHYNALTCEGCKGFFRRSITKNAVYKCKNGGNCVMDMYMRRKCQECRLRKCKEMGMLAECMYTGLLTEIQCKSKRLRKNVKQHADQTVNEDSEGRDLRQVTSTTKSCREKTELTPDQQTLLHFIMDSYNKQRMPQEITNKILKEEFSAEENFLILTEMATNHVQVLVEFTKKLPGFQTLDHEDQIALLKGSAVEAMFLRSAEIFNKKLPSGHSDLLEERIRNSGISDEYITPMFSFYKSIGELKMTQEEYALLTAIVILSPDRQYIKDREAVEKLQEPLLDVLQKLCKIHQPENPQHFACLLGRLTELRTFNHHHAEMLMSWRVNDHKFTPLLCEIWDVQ
Method in brief: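 COS-7 cells were transiently cotransfected with full-length FXR, EcRE-Luc reporter and a renilla control. Ligands were added 5 h after transfection, and cells were harvested 24 h later. Firefly luciferase was normalized to renilla in a dual-luciferase read-out.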

[6] = tested on: RA-resistant human colon cancer HCT116 cells; experiment: MTT cell viability assay, HCT116; format: cell-based; details: 48 h, read-out: Cell viability as a percentage of the cells treated with DMSO, HCT116; for viability at 20 µM: HCT-116, 20 uM; for viability at 40 µM: HCT-116, 40 uM
Method in brief: as §1

[7] = 10 mg/kg for 10 days, vehicle 377 ± 48, Table 15
[8] = 10 mg/kg once daily for 10 days
[9] = 10 mg/kg once daily for 10 days, vehicle 377 ± 48, Table 17
[10] = SRC1-2 peptide, read-out: EC50 (μM) of FXR binding by AlphaScreen assay recruit SRC1-2
[11] = SRC2-3 peptide, read-out: EC50 (μM) of FXR binding by AlphaScreen assay recruit SRC2-3

Row | EC50 [4, 10] [µM] | EC50 [4, 11] [µM] | Cell-based FXR transactivation Fold changes by 5 μM compound (full-length FXR) | EC50 (full-length FXR) [nM] | SMILES | Hepatic triglyceride (mM/g) (db/db mice; 10 mg/kg for 10 days) | Serum ALT (U/L) (db/db mice; [7]) | Serum ALP (U/L) (db/db mice; [8]) | Serum ALT (U/L) (db/db mice; [9]) | viability at 20 µM [1] [%] | viability at 40 µM [1] [%] | viability at 20 µM [2] [%] | viability at 40 µM [2] [%] | viability at 20 µM [3] [%] | viability at 40 µM [3] [%] | viability at 20 µM [5] [%] | viability at 40 µM [5] [%] | viability at 20 µM [6] [%] | viability at 40 µM [6] [%]
1 | < 0.5 | < 0.5 | 3 | < 1000 | Cc1cc(C(=O)OC2CCC3CCCCC3C2)ccc1O (stereo not drawn) [XD-29, decahydro-naphthalen-2-yl 4-hydroxy-3-methylbenzoate] | 116 ± 11 ^a mM/g | 101 ± 46^b U/L | 69 ± 9^c U/L | 101 ± 46^b U/L | 96 ± 2 | 90 ± 2 | 100 ± 2 | 88 | 72 ± 2 | 52 ± 2 | 100 ± 2 | 98 ± 2 | 100 ± 2 | 96 ± 2
2 | < 0.5 | < 0.5 | 3 | < 1000 | COc1cc(C(=O)OC2CCC3CCCCC3C2)ccc1O (stereo not drawn) [XD-30, decahydro-naphthalen-2-yl 4-hydroxy-3-methoxybenzoate] | 108 ± 8 ^c mM/g | 92 ± 27 ^a U/L | 64 ± 14^a U/L | 92 ± 27^a U/L | 81 | 79 ± 2 | 100 ± 2 | 92 ± 2 | 96 ± 2 | 77 ± 2 | 100 ± 2 | 94 ± 2 | 100 ± 2 | 100 ± 2

From patent US20180116993A1, “MODULATORS OF FARNESOID X RECEPTOR AND METHODS FOR THE USE THEREOF” (XIAMEN UNIVERSITY, priority 2015, published 2018)
